Experimental data taken from patent US20240368174A1, “Antiviral Heterocyclic Compounds” (Enanta Pharmaceuticals, Inc., priority 2023, published 2024).

Experiments:
[1] = system: HMPV clinical isolate A2 strain TN 94-49; assay: HMPV antiviral assay, Method 1 (LLC-MK2 cells, ATP-Lite); type: cell-based; conditions: human metapneumovirus, hMPV A2 TN/94-49, LLC-MK2 cells
Method in brief: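 EC50 derived by four-parameter logistic fit of percent cell health, measured as ATP-Lite luminescence after 7 days at 37° C, 5% CO2. Compounds tested as 10-point 2.5-fold dilutions starting at 2 μM against TN 94-49 virus (MOI 0.005) in LLC-MK2 cells seeded at 5,000/well, infection medium containing 2 μg/mL TPCK-trypsin, serum-free.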

[2] = system: genotype A, “Long” strain RSV; assay: RSV-A assay (CPE, ATPlite readout in Hep-2 cells); type: cell-based, Human respiratory syncytial virus; conditions: human respiratory syncytial virus, activity class
Method in brief: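 Hep-2 cells (8,000/well) were treated with 2-fold serial compound dilutions in duplicate and infected with RSV at MOI 0.1. After 5 days, protection from cytopathic effect was measured as cell viability by ATPlite luminescence, and EC50 values were derived.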

[3] = system: HMPV clinical isolate A2 strain TN 94-49; assay: HMPV antiviral assay, Method 2 (LLC-MK2 cells with CP-100-356, ATP-Lite); type: cell-based; conditions: human metapneumovirus
Method in brief: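 EC50 comes from a four-parameter fit of percent cell viability (ATP-Lite, normalized to virus-only and cell-only wells) after 7 days at 37 °C. Infection used HMPV A2 TN 94-49 at MOI 0.16 in LLC-MK2 cells, with 2 μM P-gp inhibitor CP-100-356 and 2 μg/mL TPCK-trypsin final; dose range 200 nM top, 2.5-fold, 10 points, duplicate.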

[4] = hMPV A2 TN/94-49, LLC-MK2 cells with CP-100-356, Method 2
[5] = 168 h, hMPV A2 TN/94-49, LLC-MK2 cells with 4 μM CP-100-356, 7 days, ATP-Lite

EC50 [1] [nM] | EC50 [2] [nM] | EC50 [3, 4] [nM] | EC50 [3, 5] [nM] | SMILES
< 500 | < 200 |  |  | [2H]C([2H])([2H])C1=NC2C(OC)=CC(C(=O)NC[C@](O)(c3cc4c(c(-c5ccc6c(c5Cl)OC(F)(F)O6)n3)OC[C@]4(C)C(N)=O)C3CC3)=CC2S1 (some centres unmarked) [Example 127]
> 500 | < 200 |  |  | C[C@]1(C(N)=O)COc2c1cc([C@@](O)(CNC(=O)c1ccc3nc(N)sc3c1)C1CC1)nc2-c1cc(F)c(F)cc1F [Example 73]
< 500 | < 200 |  |  | COc1cc(C(=O)NC[C@](O)(c2cc3c(c(-c4cc(Cl)c(F)cc4F)n2)OC[C@]3(C)C(N)=O)[C@H]2CC2(F)F)cc2cn(C3CC3)nc12 [Example 150]
< 500 | < 200 |  |  | COc1cc(C(=O)NC[C@](O)(c2cc3c(c(-c4ccc5c(c4C)OC(F)(F)O5)n2)OC[C@]3(C)C(N)=O)C2CC2)cc2cn(C3CC3)nc12 [Example 392]
< 500 | < 200 |  |  | C[C@]1(C(N)=O)COc2c1cc([C@@](O)(CNC(=O)c1cc(OC3CC3)c3nn(C4CC4)cc3c1)C1CC(F)(F)C1)nc2-c1cc(F)c(F)cc1F [Example 32]
> 500 | < 200 |  |  | COc1cc(C(=O)NC[C@](O)(c2cc3c(c(-c4cc(Cl)c(F)cc4F)n2)OC[C@]3(C)C(N)=O)C2(CO)CC2)cc2cn(C3CC3)nc12 [Example 245]
< 500 | < 200 |  |  | COc1cc(C(=O)NC[C@](O)(c2cc3c(c(-c4ccc5c(c4Cl)OC(F)(F)O5)n2)OC[C@]3(C)C(N)=O)C2CC2)cc2cn(C3(F)CC3)nc12 [Example 128]
< 500 | < 200 |  |  | [2H]C([2H])([2H])c1nc2ccc(C(=O)NC[C@](O)(c3cc4c(c(-c5cc(F)c(F)cc5F)n3)OC[C@]4(C)C(N)=O)C3CC3)cc2o1 [Example 92]
< 500 | < 200 |  |  | [2H]C([2H])([2H])c1nc2ccc(C(=O)NC[C@](O)(c3cc4c(c(-c5cc(Cl)c(F)cc5F)n3)OC[C@]4(C)C(N)=O)C3CC3)cc2o1 [Example 91]
< 500 | < 200 |  |  | COc1cc(C(=O)NC[C@](O)(c2cc3c(c(-c4cc(Cl)c(F)cc4F)n2)OC[C@]3(C)C(N)=O)[C@@H]2CC2(F)F)cc2cn(C3CC3)nc12 [Example 151]
> 500 | < 200 |  |  | C=C(CNC(=O)c1cc(OC)c2nn(C3CC3)cc2c1)c1cc2c(c(-c3cc(Cl)c(F)cc3F)n1)OC[C@]2(C)C(N)=O [Example 214]
< 500 | < 200 |  |  | COc1cc(C(=O)NC[C@](O)(c2cc3c(c(-c4ccc(F)c(Cl)c4C)n2)OC[C@]3(C)C(N)=O)C2CC2)cc2cn(C3CC3)nc12 [Example 391]
< 500 | < 200 |  |  | COc1cccc([C@](O)(CNC(=O)c2cc(OC)c3nn(C(F)F)cc3c2)c2cc3c(c(-c4cc(Cl)c(F)cc4F)n2)OC[C@]3(C)C(N)=O)c1 [Example 161]
 | < 200 | < 200 |  | COc1cc(C(=O)NC[C@@](O)(c2cccc(F)c2)c2cc3c(c(-c4ccnc(C)c4Cl)n2)OC[C@]3(C)C(N)=O)cc2cn(C3CC3)nc12 [Example 378]
 | < 200 | < 200 |  | COc1cc(C(=O)NC[C@](O)(c2cc3c(c(-c4cc(F)c(F)cc4F)n2)OC[C@]3(C)C(N)=O)C2CC(F)(F)C2)cc2oc(C3CC3)nc12 [Example 124]
 | < 200 | < 200 |  | COc1nccc(-c2nc([C@@](O)(CNC(=O)c3cc(OC)c4nn(C5(F)CC5)cc4c3)C(F)(F)F)cc3c2OC[C@]3(C)C(N)=O)c1Cl [Example 543]
 | < 200 | < 200 |  | COc1cc(C(=O)NC[C@](O)(c2cc3c(c(-c4cc(Cl)ncc4C)n2)OC[C@]3(C)C(N)=O)C2CC2)cc2cn(C3CC3)nc12 [Example 417]
 | < 200 | < 200 |  | COc1cc(C(=O)NC[C@@](O)(c2cccc(F)c2)c2cc3c(c(-c4cc(Cl)ncc4F)n2)OC[C@]3(C)C(N)=O)cc2cn(C3CC3)nc12 [Example 410]
< 500 | < 200 |  |  | Cc1nc2ccc(C(=O)NC[C@](O)(c3cc4c(c(-c5cc(Cl)c(F)cc5F)n3)OC[C@]4(C)C(N)=O)C3CC3)cc2s1 [Example 74]
 | < 200 | > 200 |  | COc1cc(C(=O)NC[C@@](O)(c2cccc(F)c2)c2cc3c(c(-c4cc(F)cnc4Cl)n2)OC[C@]3(C)C(N)=O)cc2cn(C3(F)CC3)nc12 [Example 403]
 | < 200 |  | < 200 | COc1cc(C(=O)NC[C@](O)(c2cc3c(c(-n4ccc5c(F)cccc54)n2)OC[C@]3(C)C(N)=O)C2(F)CC2)cc2cn(C3(F)CC3)nc12 [Example 689]
 | < 200 | < 200 |  | COc1cc(C(=O)NC[C@@](O)(c2ccccc2)c2cc3c(c(-c4ccnc(F)c4Cl)n2)OC[C@]3(C)C(N)=O)cc2cn(C3CC3)nc12 [Example 343]

EC50 [1] [nM] | EC50 [2] [nM] | EC50 [3, 4] [nM] | EC50 [3, 5] [nM] | SMILES
 | < 200 | < 200 |  | C[C@]1(C(N)=O)COc2c1cc([C@@](O)(CNC(=O)c1ccc3nc(C4CC4)oc3c1)C1CC1)nc2-c1ccc(F)c(Cl)c1Cl [Example 319]
< 500 | < 200 |  |  | Cc1nc2ccc(C(=O)NC[C@](O)(c3cc4c(c(-c5cc(Cl)c(F)cc5F)n3)OC[C@]4(C)C(N)=O)C3CC3)cc2o1 [Example 75]
 | < 200 | < 200 |  | C[C@]1(C(N)=O)COc2c1cc([C@@](O)(CNC(=O)c1cc(OC3CC3)c3ncc(Cl)cc3c1)C1CC1)nc2-c1ccc(F)c(Cl)c1Cl [Example 321]
< 500 | < 200 |  |  | Cc1nc2c(OC3CC3)cc(C(=O)NC[C@](O)(c3cc4c(c(-c5cc(Cl)c(F)cc5F)n3)OC[C@]4(C)C(N)=O)C3CC3)cc2s1 [Example 76]
 | < 200 | < 200 |  | COc1cc(C(=O)NC[C@](O)(c2cc3c(c(-c4ccc5c(c4Cl)OC(F)(F)O5)n2)OC[C@]3(C)C(N)=O)C2CC2)cc2cc(Cl)cnc12 [Example 105]
 | < 200 | < 200 |  | COc1cc(C(=O)NC[C@@](O)(c2ccccc2)c2cc3c(c(-c4ccnc(F)c4Cl)n2)OC[C@]3(C)C(N)=O)cc2cc(Cl)cnc12 [Example 346]
 | < 200 |  | < 200 | COc1cc(C(=O)NC[C@](O)(c2cc3c(c(-c4ccnc(C(F)F)c4Cl)n2)OC[C@]3(C)C(N)=O)C(F)(F)F)cc2cn(C3CC3)nc12 [Example 795]
 | < 200 |  | < 200 | COC1=CC(C(=O)NC[C@](O)(c2cc3c(c(-c4ccnc(C(F)(F)F)c4F)n2)OC[C@]3(C)C(N)=O)C2CC2)=CC2OC(C3CC3)=NC12 (some centres unmarked) [Example 801]
 | < 200 |  | < 200 | COc1cc(C(=O)NC[C@](O)(c2cc3c(c(-c4cc(C(F)(F)F)ncc4F)n2)OC[C@]3(C)C(N)=O)C2CC2)cn2cc(C3CC3)nc12 [Example 662]
< 500 | < 200 |  |  | COc1cc(C(=O)NC[C@@](O)(c2ccc(F)cc2)c2cc3c(c(-c4ccc5c(c4Cl)OC(F)(F)O5)n2)OC[C@]3(C)C(N)=O)cc2cn(C3CC3)nc12 [Example 25]
 | < 200 |  | < 200 | COc1cc(C(=O)NC[C@](O)(c2cc3c(c(-n4ncc5cc(F)ccc54)n2)OC[C@]3(C)C(N)=O)C2CC2)cc2cn(C3CC3)nc12 [Example 821]
 | < 200 |  | < 200 | COc1cc(C(=O)NC[C@](O)(c2cc3c(c(-n4ccc5c(F)cccc54)n2)OC[C@]3(C)C(N)=O)C(F)(F)F)cc2cn(C3CC3)nc12 [Example 851]
 | < 200 | < 200 |  | COc1cc(C(=O)NC[C@](O)(c2cc3c(c(-c4ccc5c(c4)OC(F)(F)O5)n2)OC[C@]3(C)C(N)=O)C2CC2)cc2cc(Cl)cnc12 [Example 107]
 | < 200 | < 200 |  | COc1cc(C(=O)NC[C@](O)(c2cc3c(c(-c4ccnc(C(F)F)c4Cl)n2)OC[C@]3(C)C(N)=O)C(F)(F)F)cc2oc(C3CC3)nc12 [Example 550]
 | > 200 | > 200 |  | COc1cc(C(=O)NC[C@](O)(c2cccc(F)c2)c2cc3c(c(-c4ccnc(F)c4Cl)n2)OC[C@]3(C)C(N)=O)cc2cn(C3(F)CC3)nc12 [Example 402]
 | < 200 | > 200 |  | COc1cc(C(=O)N(C)C[C@](O)(c2cc3c(c(-c4ccc(F)c(Cl)c4)n2)OC[C@]3(C(N)=O)C(F)F)C2CC2)cc2cn(C3CC3)nc12 [Example 350]
 | < 200 | > 200 |  | COc1cc(C(=O)NC[C@@](O)(CN(C)C)c2cc3c(c(-c4cc(Cl)c(F)cc4F)n2)OC[C@]3(C)C(N)=O)cc2cn(C3CC3)nc12 [Example 238]
 | < 200 |  | < 200 | COc1cc(C(=O)NC[C@@](O)(c2ccccc2)c2cc3c(c(-n4ncc5c(F)cccc54)n2)OC[C@]3(C)C(N)=O)cc2oc(C3CC3)nc12 [Example 631]
 | < 200 |  | < 200 | COc1cc(C(=O)NC[C@@](O)(c2ccccc2)c2cc3c(c(-n4ncc5c(F)cccc54)n2)OC[C@]3(C)C(N)=O)cc2cc(C3CC3)nn12 [Example 630]
 | < 200 | < 200 |  | COc1cc(C(=O)NC[C@](O)(c2cc3c(c(-c4ccnc(C(F)(F)F)c4Cl)n2)OC[C@]3(C)C(N)=O)C(F)(F)F)cc2oc(C3CC3)nc12 [Example 536]
 | < 200 |  | < 200 | COc1cc(C(=O)NC[C@](O)(c2cc3c(c(-c4ccnc(C(F)(F)F)c4F)n2)OC[C@]3(C)C(N)=O)C2CC2)cc2cn(C3(F)CC3)nc12 [Example 800]
